Data set [1] deals with T1, aldose reductase (Bos taurus, UniProt P16116).
T1 construct: The enzyme was extracted from beef crystalline lenses; from tissue; host or cells: beef crystalline lenses
The data set is described as follows: Inhibition of aldose reductase in vitro. Type of data set: biochemical. The conditions noted are these: enzyme from beef crystalline lenses; glyceraldehyde reduction, NADPH spectrophotometry. As to the method: The enzyme was extracted from beef crystalline lenses by the method described by S. Hayman and J. H. Kinoshita (J. Biol. Chem. 1965, 240, (2), 877). The percentage of inhibition of the capacity of the enzyme to reduce glyceraldehyde to glycerol under the effect of the product to be tested was determined by spectrophotometric determination of the amount of NADPH reacting according to the method described by Hayman and Kinoshita.

In data set [2] the test system is hypercholesterolemic mice. The data set is described as follows: Hypolipidemic activity in hypercholesterolemic mice. The conditions noted are these: 400 mg/kg orally, twice at 20 hour intervals. The data set is classed as in vivo. The method, then:
The products, object of this invention, are useful as hypolipidemic agents. Thus, COR 1983 administered twice in a dose of 400 mg/kg orally at 20 hour intervals in hypercholesterolemic mice caused 24% reduction in cholesterolemia.

Data set [3] relates to mice. The data set is described as follows: Toxicity in mice. The method, then: (§1) The toxicity of the products of this invention was determined in mice.
Data set [4] can be described thus: Toxicity in mice. The conditions noted are these: mouse, in vivo, ip, 200 mg/kg. The method, then: as §1
For data set [5], the system named is neuropathy induced by streptozotocin. The data set is described as follows: Streptozotocin neuropathy in rats (sciatic nerve sorbitol and inositol, glycemia). The data set is classed as in vivo. The conditions noted are these: for inositol level in sciatic nerves / sorbitol level in sciatic nerves: streptozotocin 100 mg/kg i.p.; for inositol level in sciatic nerves: 3rd day, controls 2.174±0.481; for sorbitol level in sciatic nerves: controls 0.819±0.215; for glycemia: streptozotocin, D 3, controls 4.72±0.60. The method, then:
4 batches of 10 rats weighing about 200 g were treated from D--2 to D+3 with a gummy julep of the product to be tested. At D 0 the animals received an i.p. injection of 100 mg/kg of streptozotocin dissolved in a citrate buffer. The glycemia was determined 24 hours and 3 days after injection of the diabetogenic agent. The rats were sacrificed on the 3rd day after streptozotocin injection and the sciatic nerves were removed to determine the sorbitol and inositol levels. Tested under these condition, COR 1988 caused a reduction of the sorbitol level that went from 0.819±0.215 mg/kg in the controls to 0.608±0.049 mg/kg in animals treated with 50 mg/kg and to 0.482±0.091 mg/kg in animals treated with 100 mg/kg. Also the inositol level went from 2.174±0.481 mg/kg in the controls to 1.593±0.109 mg/kg in the animals treated wtih 25 mg/kg, to 1.430+0.104 mg/kg in the animals treated with 50 mg/kg and to 1.402±0.130 mg/kg in animals treated with 100 mg/kg. The sorbitol and inositol levels after treatment were compared with the control levels by the U test of Mann and Whitney (D. Schwartz, Methodes statistique a 1' usage des medecins et biologists [Statistical method for use by physicians and biologistes], Ed. Flammarion, Paris 1963). The results obtained are significant with p<1%. Glycemia of the control animals was 4.72±0.60g/l on D 3. It went to 3.93±0.82 g/l in animals treated with […] of COR 1988 and to 3.61±0.73 g/l in animals treated with 100 mg/kg. The reduction of glycemia are significant.

Broadly, the IC50 is the midpoint of a concentration-inhibition curve. The low end stands for greater potency in that assay, the high end for weaker potency in that assay. For orientation: mortality means the share of the test organisms that died. Low values mean more survivors, high ones fewer survivors.

In turn, `Cc1ccc(S(=O)(=O)Oc2c(-c3ccc(O)c(O)c3)oc3cc(O)cc(O)c3c2=O)cc1` [COR 1990, 3-Paratoluenesulfonyloxy-5,7,3',4'-tetrahydroxyflavone] gave an IC50 in data set [1] of 3.16 µM. This lies in the single-digit micromolar range.
As for `CCOc1c(-c2ccc(O)c(O)c2)oc2cc(O)ccc2c1=O` [COR 1987, 3-Ethoxy-7,3',4'trihydroxyflavone], in data set [1], half-maximal inhibition (IC50) required 0.501 µM.
`O=c1c(OC2CCCCC2)c(-c2ccc(O)c(O)c2)oc2cc(O)cc(O)c12` [COR 1983, 3-cyclohexyloxy-5,7-3',4'-tetrahydroxyflavone] displayed a reduction in cholesterolemia in data set [2] of 24%. Further, the IC50 in data set [1] is 1.58 µM. Besides, the mortality result was “no mortality” in data set [3] (mice, orally, in water with 6% gum, dose of 1 g/kg); “did not cause any mortality” in data set [3] (mouse, in vivo); 10% in data set [4].
In the case of `CS(=O)(=O)Oc1c(-c2ccc(O)c(O)c2)oc2cc(O)cc(O)c2c1=O` [COR 1988, 3-methanesulfonyloxy-3',4',5,7-tetrahydroxyflavone], the IC50 in data set [1] is 0.251 µM. Also, the “inositol level in sciatic nerves” value in data set [5] (treated with 25 mg/kg) came out at 1.593 ± 0.109 mg/kg; in data set [5] (treated with 50 mg/kg) it was 1.430 ± 0.104 mg/kg; in data set [5] (treated with 100 mg/kg), 1.402 ± 0.130 mg/kg. Moreover, the “sorbitol level in sciatic nerves” value in data set [5] (treated with 50 mg/kg D-2 to D+3, 3rd day) came out at 0.608 ± 0.049 mg/kg; in data set [5] (treated with 100 mg/kg D-2 to D+3, 3rd day), 0.482 ± 0.091 mg/kg. For the same compound, the glycemia in data set [5] (treated with 50 mg/kg) came out at 3.93 ± 0.82 g/L; in data set [5] (treated with 100 mg/kg) it was 3.61 ± 0.73 g/L. In data set [3] (mice, orally, in water with 6% gum, up to a dose of 3 g/kg), the mortality result is given as “did not cause any mortality”.

The values are drawn from US4591600A, “3-hydroxyflavones: their preparation and therapeutic application” (Societe Cortial, S.A., priority 1983, dated 1986).
